Source: US8846933B2, “N-link hydroxamic acid derivatives useful as antibacterial agents” (Pfizer Inc., priority 2009, dated 2014)
Where a name gives a salt, the structure may show the parent alone.

Key:
Format in all cases: cell-based
Settings in all cases: unit assumed
[1] = tested on: Escherichia coli EC-1: VOGEL, mouse virulent; experiment: MIC determination (CLSI), strain EC-1
Outline: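 The mouse-virulent VOGEL isolate of E. coli, EC-1, served as test organism. Minimum inhibitory concentration was measured by CLSI dilution methodology (M7-A7; M100-S18 standards).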

[2] = tested on: Pseudomonas aeruginosa UI-18: Wild-type (PA-7); experiment: MIC determination (CLSI), strain PA-7
Outline: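 Strain tested was P. aeruginosa UI-18, a wild-type isolate labelled PA-7. Minimum inhibitory concentrations followed CLSI dilution methodology for aerobically growing bacteria (M7-A7, M100-S18).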

[3] = tested on: Acinetobacter baumanii/haemolyticus: Multidrug-resistant clinical isolate (AB-3167); experiment: MIC determination (CLSI), strain AB-3167
Protocol: The in vitro antibacterial activity of compounds described in the Examples was evaluated by minimum inhibitory concentration (MIC) testing according to Clinical and Laboratory Standards Institute (CLSI, formerly NCCLS) guidelines. See: Clinical and Laboratory Standards Institute. Methods for Dilution Antimicrobial Susceptibility Tests for Bacteria that Grow Aerobically; Approved Standard-Seventh Edition. CLSI document M7-A7 [ISBN 1-56238-587-9]. Clinical and Laboratory Standards Institute, 940 West Valley Road, Suite 1400, Wayne, Pa. 19087-1898 USA, 2006; also Clinical and Laboratory Standards Institute. Performance Standards for Antimicrobial Susceptibility Testing; Eighteenth Informational Supplement. CLSI document M100-S18 [ISBN1-56238-653-0].Clinical and Laboratory Standards Institute.
The following bacterial strains were used in these MIC determinations:
2) Acinetobacter baumanii/haemolyticus: Multidrug-resistant clinical isolate labeled as AB-3167 in Tables 4 and 5;

[4] = Escherichia coli EC-1, VOGEL, mouse virulent
[5] = Pseudomonas aeruginosa UI-18, wild-type

Structure (SMILES) | EC-1 (MIC) [1, 4] [µg/mL] | PA-7 (MIC) [2, 5] [µg/mL] | AB-3167 (MIC) [3] [µg/mL] | EC-1 (MIC) ([1]; strain EC-1) [µg/mL] | PA-7 (MIC) ([2]; strain PA-7) [µg/mL]
CC(CCn1ccc(-c2ccc(OCCCN3CCC(F)(F)CC3)cc2)cc1=O)(C(=O)NO)S(C)(=O)=O (racemic) [Example 4, (+/−)-4-[4-{4-[3-(4,4-Difluoropiperidin-1-yl)propoxy]phenyl}-2-oxopyridin-1(2H)-yl]-N-hydroxy-2-methyl-2-(methylsulfonyl)butanamide hydrochloride] | 1 | 4 | > 64 | – | –
CC(CCn1ccc(-c2cc3ccccc3o2)cc1=O)(C(=O)NO)S(C)(=O)=O (racemic) [Example 33, (+/−)-4-[4-(1-benzofuran-2-yl)-2-oxopyridin-1(2H)-yl]-N-hydroxy-2-methyl-2-(methylsulfonyl)butanamide] | 1 | 2 | > 64 | – | –
COc1ccc2cc(-c3ccn(CCC(C)(C(=O)NO)S(C)(=O)=O)c(=O)c3)ccc2c1 (racemic) [Example 34, (+/−)-N-hydroxy-4-[4-(6-methoxy-2-naphthyl)-2-oxopyridin-1(2H)-yl]-2-methyl-2-(methylsulfonyl)butanamide] | < 0.06 | 1 | 8 | – | –
CC(CCn1ccc(-c2ccc(-c3ccncc3)cc2)cc1=O)(C(=O)NO)S(C)(=O)=O (racemic) [Example 35, N-Hydroxy-2-methyl-2-(methylsulfonyl)-4-[2-oxo-4-(4-pyridin-4-ylphenyl)pyridin-1(2H)-yl]butanamide] | 0.5 | 2 | > 64 | – | –
C[C@@](CCn1ccc(-c2ccc(-n3cccn3)cc2)cc1=O)(C(=O)NO)S(C)(=O)=O [Example 1, (2R)-N-hydroxy-2-methyl-2-(methylsulfonyl)-4-{2-oxo-4-[4-(1H-pyrazol-1-yl)phenyl]pyridin-1(2H)-yl}butanamide] | 0.5 | 2 | > 64 | – | –
C[C@@](CCn1ccc(/C=C/c2ccccc2)cc1=O)(C(=O)NO)S(C)(=O)=O [Example 2, (2R)-N-hydroxy-2-methyl-2-(methylsulfonyl)-4-{2-oxo-4-[(E)-2-phenylvinyl]pyridin-1(2H)-yl}butanamide] | 0.5 | 2 | 64 | – | –
C[C@@](CCn1ccc(CCc2ccccc2)cc1=O)(C(=O)NO)S(C)(=O)=O [Example 3, (2R)-N-hydroxy-2-methyl-2-(methylsulfonyl)-4-[2-oxo-4-(2-phenylethyl)pyridin-1(2H)-yl]butanamide] | 1 | 4 | 64 | – | –
C[C@@](CCn1ccc(-c2ccc([C@H]3C[C@@H](O)C3)cc2)cc1=O)(C(=O)NO)S(C)(=O)=O [Example 5, (2R)-N-hydroxy-4-{4-[4-(cis-3-hydroxycyclobutyl)phenyl]-2-oxopyridin-1(2H)-yl}-2-methyl-2-(methylsulfonyl)butanamide] | 4 | 2 | > 64 | – | –
C[C@@](CCn1ccc(-c2ccc([C@H]3C[C@H](O)C3)cc2)cc1=O)(C(=O)NO)S(C)(=O)=O [Example 6, (2R)-N-hydroxy-4-{4-[4-(trans-3-hydroxycyclobutyl)phenyl]-2-oxopyridin-1(2H)-yl}-2-methyl-2-(methylsulfonyl)butanamide] | 4 | 4 | > 64 | – | –
C[C@@](CCn1ccc(-c2ccc(OC3CCC(O)CC3)cc2)cc1=O)(C(=O)NO)S(C)(=O)=O (stereo partly drawn) [Example 7, (2R)-N-hydroxy-4-[4-{4-[(4-hydroxycyclohexyl)oxy]phenyl}-2-oxopyridin-1(2H)-yl]-2-methyl-2-(methylsulfonyl)butanamide] | 1 | 2 | 64 | – | –
Cc1cnn(-c2ccc(-c3ccn(CCC(C)(C(=O)NO)S(C)(=O)=O)c(=O)c3)cc2)n1 (stereo not drawn) [Example 455] | – | – | – | 0.06 | 1
Cc1ccc(-c2ccc(-c3ccn(CC[C@](C)(C(=O)NO)S(C)(=O)=O)c(=O)c3)cc2)cn1 [Example 456, (2R)-N-hydroxy-2-methyl-4-{4-[4-(6-methylpyridin-3-yl)phenyl]-2-oxopyridin-1(2H)-yl}-2-(methylsulfonyl)butanamide] | – | – | – | 0.25 | 1
Cc1cnc(-c2ccc(-c3ccn(CC[C@](C)(C(=O)NO)S(C)(=O)=O)c(=O)c3)cc2)cn1 [Example 457, (2R)-N-hydroxy-2-methyl-4-{4-[4-(5-methylpyrazin-2-yl)phenyl]-2-oxopyridin-1(2H)-yl}-2-(methylsulfonyl)butanamide] | – | – | – | 0.5 | 2
C[C@@](CCn1ccc(-c2ccc(-c3ncc(Cl)cn3)cc2)cc1=O)(C(=O)NO)S(C)(=O)=O [Example 458, (2R)-4-{4-[4-(5-chloropyrimidin-2-yl)phenyl]-2-oxopyridin-1(2H)-yl}-N-hydroxy-2-methyl-2-(methylsulfonyl)butanamide] | – | – | – | 0.06 | 0.5
COc1c(F)cc(-c2ccn(CC[C@](C)(C(=O)NO)S(C)(=O)=O)c(=O)c2)cc1F [Example 459] | – | – | – | 2 | 2
Cc1cnc(-c2ccc(-c3ccn(CC[C@](C)(C(=O)NO)S(C)(=O)=O)c(=O)c3)cc2)nc1 [Example 461] | – | – | – | 0.125 | 1
CCCCc1ccc(-c2ccn(CC[C@](C)(C(=O)NO)S(C)(=O)=O)c(=O)c2)cc1 [Example 464, (2R)-4-[4-(4-butylphenyl)-2-oxopyridin-1(2H)-yl]-N-hydroxy-2-methyl-2-(methylsulfonyl)butanamide] | – | – | – | 0.03 | 1
CCCc1ccc(-c2ccn(CC[C@](C)(C(=O)NO)S(C)(=O)=O)c(=O)c2)cc1 [Example 465, (2R)-N-hydroxy-2-methyl-2-(methylsulfonyl)-4-[2-oxo-4-(4-propylphenyl)pyridin-1(2H)-yl]butanamide] | – | – | – | 0.125 | 0.5
CC(C)c1cccc(-c2ccn(CC[C@](C)(C(=O)NO)S(C)(=O)=O)c(=O)c2)c1 [Example 466] | – | – | – | 2 | 4

Structure (SMILES) | EC-1 (MIC) [1, 4] [µg/mL] | PA-7 (MIC) [2, 5] [µg/mL] | AB-3167 (MIC) [3] [µg/mL] | EC-1 (MIC) ([1]; strain EC-1) [µg/mL] | PA-7 (MIC) ([2]; strain PA-7) [µg/mL]
Cc1cc(-c2ccn(CC[C@](C)(C(=O)NO)S(C)(=O)=O)c(=O)c2)ccc1C#N [Example 467] | – | – | – | 4 | 2
COc1cccc(-c2ccn(CC[C@](C)(C(=O)NO)S(C)(=O)=O)c(=O)c2)c1C [Example 468] | – | – | – | 2 | 2
COCCc1cccc(-c2ccn(CC[C@](C)(C(=O)NO)S(C)(=O)=O)c(=O)c2)c1 [Example 470] | – | – | – | 16 | 32
Cc1cc(C#N)ccc1-c1ccn(CC[C@](C)(C(=O)NO)S(C)(=O)=O)c(=O)c1 [Example 472] | – | – | – | 32 | 8
C[C@@](CCn1ccc(-c2ccc3cc(N)ncc3c2)cc1=O)(C(=O)NO)S(C)(=O)=O [Example 473] | – | – | – | 16 | 16
C[C@@](CCn1ccc(-c2cnc(-c3ccccc3)o2)cc1=O)(C(=O)NO)S(C)(=O)=O [Example 474] | – | – | – | 64 | 64
CC(C#N)Sc1cccc(-c2ccn(CC[C@](C)(C(=O)NO)S(C)(=O)=O)c(=O)c2)c1 (stereo partly drawn) [Example 475] | – | – | – | 8 | 8
Cc1ccc(-c2ccn(CC[C@](C)(C(=O)NO)S(C)(=O)=O)c(=O)c2)cc1C#N [Example 476] | – | – | – | 16 | 8
COc1cc(-c2ccn(CC[C@](C)(C(=O)NO)S(C)(=O)=O)c(=O)c2)c(F)cc1C#N [Example 477] | – | – | – | 64 | 32
COC(=O)CCc1ccc(-c2ccn(CC[C@](C)(C(=O)NO)S(C)(=O)=O)c(=O)c2)cc1 [Example 478] | – | – | – | 2 | 1
CCOc1ccc(-c2ccn(CC[C@](C)(C(=O)NO)S(C)(=O)=O)c(=O)c2)cc1C#N [Example 479] | – | – | – | 64 | 16
C[C@@](CCn1ccc(-c2cccc(OC(F)F)c2)cc1=O)(C(=O)NO)S(C)(=O)=O [Example 480] | – | – | – | 8 | 4
C[C@@](CCn1ccc(-c2ccc3c(c2)C(=O)OCC3)cc1=O)(C(=O)NO)S(C)(=O)=O [Example 481] | – | – | – | > 64 | 64
COc1ccnc2ccc(-c3ccn(CC[C@](C)(C(=O)NO)S(C)(=O)=O)c(=O)c3)cc12 [Example 482] | – | – | – | > 64 | > 64
Cn1c(=O)sc2cc(-c3ccn(CC[C@](C)(C(=O)NO)S(C)(=O)=O)c(=O)c3)ccc21 [Example 483] | – | – | – | 8 | 8
C[C@@](CCn1ccc(-c2ccc3cnc(N)cc3c2)cc1=O)(C(=O)NO)S(C)(=O)=O [Example 485] | – | – | – | 64 | 32
C[C@@](CCn1ccc(-c2ccc3c(c2)C(=O)OC3)cc1=O)(C(=O)NO)S(C)(=O)=O [Example 486] | – | – | – | > 64 | > 64
CC(CCn1ccc(OCCCC2CCCC2)cc1=O)(C(=O)NO)S(C)(=O)=O (stereo not drawn) [Example 488, 4-[4-(3-cyclopentylpropoxy)-2-oxopyridin-1(2H)-yl]-N-hydroxy-2-methyl-2-(methylsulfonyl)butanamide] | – | – | – | 8 | 64
